This is an account of results in patent US20120148695A1, “Pharmaceutical Compositions From Carapa Guianensis” (priority 2004, published 2012).

Experiment [1] has as its system edema of paw induced by PAF. The experiment can be described thus: edema of paw induced by platelet activation factor (PAF). The format is in vivo, Swiss mice. Conditions: WEB 2170 16 mg/Kg oral; PAF 1 μg/paw. As to the method: Swiss mice were stimulated through intraplant injection of 1 μg/paw of platelet activation factor (PAF) in one of the rear paws at the volume of 50 μL/paw. In the counter-lateral paw the same volume of vehicle injected (sterile saline free of pyrogens). The stimulus was performed in non-treated animals and animals pre-treated with 16 mg/Kg of antagonist to PAF WEB 2170 (p.o., 100 μL). Thirty minutes after the stimulus, the edema was analyzed by the digital plethysmograph, through the displacement of fluid (0.5 g NaCl; 3 mL Extran 100%/1 L) produced by insertion of each paw in the measurement tray. Each analysis was performed 3 times.

The subject of experiment [2] is edema of paw induced by carrageenin. Briefly: edema of paw induced by carrageenin. The class given is in vivo, Swiss mice. The settings on record: diclophenac 100 mg/Kg oral; carrageenin 300 μg/paw. How it is done:
(§1) The animals were stimulated through intraplant injection of stimulus (zimosan or carrageenin) in one of rear paws with the volume of 50 μL/paw. Doses used were: 500 μg/paw of zimosan and 300 μg/paw of carrageenin. In the counter-lateral the same volume of vehicle was injected (sterile saline free of pyrogens). Four hours after the stimulus, the edema was analyzed at the digital plethysmograph, through of displacement of fluid (0.5 g NaCl; 3 mL Extran 100%/1 L) produced by insertion of each paw in the measurement tray. Each Analysis was performed 3 times.
In general terms: In the carrageenan paw model, swelling and tenderness develop within hours.

In experiment [3] the test system is edema of paw induced by zimosan. The experiment can be described thus: edema of paw induced by zimosan. The settings on record: diclophenac 100 mg/Kg oral; zimosan 500 μg/paw. The class given is in vivo, Swiss mice. How it is done: as §1
Experiment [4] deals with pleurisis induced by carrageenin. Briefly: pleurisis induced by carrageenin. The class given is in vivo, Swiss mice. Conditions: diclophenac 100 mg/Kg p.o.; 4 h. As to the method: Pleurisis was induced through intra-thoracic injection (i.t) of carrageenin (300 μg/cavity) at the final volume of 100 μL (Henriques and col., 1991). The control group received 100 μL of vehicle (sterile saline). Four hours after the stimulus, the animals were sacrificed in of CO2 chamber, their thoracic pleural were exposed and washed with phosphate tampon (PBS) heparinized (20 UI/mL). The pleural cavity of the animals was washed with the help of an automatic pipette, at the volume of 1 mL. The pleural wash was collected and centrifuged (740 g, 10 minutes) to remove cells for posterior evaluation of the proteic exudation, as described as follows. Mice were previously injected intravenously at their orbital plexus with Evans blue 1% (25 mg/Kg), and a proteic exudation was evaluated through of overflowing of Evans blue, through spectrophotometer at λ 600 nm. The concentration of Evans blue was determined comparing the optical density (D.O.) of washes with a pattern curve of Evans blue (of 25.6 a 0.2 μg/mL). Results were expressed as μg/mL of Evans blue. The count of the number of total leucocytes in the pleural wash was made with the help of a Neubauer chamber as of a quota removed from the pleural wash, diluted 40 times in Turk liquid for the lise of erythrocytes. […] Results are expressed as number of cells (×10^6) by cavity.

In experiment [5] the test system is hyperalgesia induced by carrageenin. The experiment can be described thus: hyperalgesia induced by carrageenin (hot plate). The class given is in vivo, Wistar rats. The settings on record: dipyrone 100 mg/Kg p.o. As to the method: (§2) The […] activity was evaluated through an essay of hyperalgesia, performed in a heated plate (Hot Plate, Ugo Basile-Italia model DS-37), with male Wistar rats. The essay is performed through placement of the animals on the hot plate, limited by an acrylic dome of approximately 18 cm in diameter by 40 cm in height.
The induction of hyperalgesic state was performed through the intraplant injection of 800 μg/paw of carrageenin in Wistar rats in one of the rear paws, at the final volume of 100 μL/paw. In the counter-lateral paw the same volume of vehicle (sterile saline free of pyrogens) was injected. The stimulus was performed in animals non-treated and in animals pre-treated with dipyrone (100 mg/Kg, p.o.). Three hours after the stimulus, the animals were placed in a hot plate at 52.5±0.5° C., and two chronometers are set to record the latency of response of withdrawal of each rear paw. Results were expressed in terms of variation of latency of withdrawal of left and right side paws, measured in seconds.

Experiment [6] concerns edema of paw induced by histamine. The experiment can be described thus: edema of paw induced by histamine, oral pre-treatment. The format is in vivo, Swiss mice. The settings on record: mice; promethazine 30 mg/Kg p.o. How it is done:
The animals were stimulated through interplant injection of stimulus (histamine, bradikinin and PAF—platelet-activating factor) in one of the rear paws with volumes of 50 or 100 μL/paw for mice or rats, respectively. The dosages used were: 100 μg/paw of histamine, 10 nmol/paw of bradykinin and 1 μg/paw of PAF (we notice that only bradykinin was injected in a volume of 50 μL). On the counter-lateral side of the paw the same volume of the vehicle (saline sterile free of pyrogen). Thirty minutes or one hour after the stimulus, the edema was analyzed at the digital plethysmograph, through of displacement of fluid (0.5 g NaCl; 3 mL Extran 100%/1 L) produced by the insertion of each paw in the measurement tray. Each analysis was performed 3 times.
(§3) The treatments with oil or tetranortriterpenoids were performed orally (p.o) 1 hour before the stimulation in conscious animals, kept in a previous fasting of 12 hours with free access to water. The treatment solutions were administered with the help of a curve needle with spherical end, with volumes of 200 μL or 400 μL for mice (of 25 g) or rats (of 200 g). The doses used were 200 or 400 mg/Kg for mice and 150 or 300 mg/Kg for rats. The tetranortriterpenoids were administered in doses of 12.5; 25; 50; 100 and 200 mg/Kg. […]

For experiment [7], the system named is pleural exudation induced by histamine. The experiment can be described thus: pleurisy induced by histamine, pleural exudation (Evans blue). The class given is in vivo, Swiss mice. Conditions: promethazine 30 mg/Kg p.o.; histamine 100 μg/cavity. As to the method: The pleurisy was induced through intra-thoracic injection (i.t) of histamine (100 μg/cavity) at the final volume of 100 μL. The control group received 100 μL of vehicle (sterile saline). One hour after the stimulus, the animals were sacrificed in a chamber CO2, their thoracic cavities were exposed and washed with phosphate tampon (PBS) heparinized (20 UI/mL). The pleural cavity of the animals was washed with the help of an automatic pipette, with volumes of 1 and 3 mL for mice and rats, respectively. The pleural wash was collected and centrifuged (740 g, 10 minutes) to remove the cells for posterior evaluation of the proteic exudation, as described as follows. In experiences made with mice, they were previously intravenously injected with Evans blue 1% (25 mg/Kg), at the orbital plexus and the proteic exudation was evaluated through overflow of Evans blue, through spectrophotometer at λ 600 nm. The concentration of Evans blue was determined comparing the optical density (D.O.) of washes with a pattern curve of Evans blue (of 25.6 a 0.2 μg/mL). Results were expressed as μg/mL of Evans blue. For analysis in rats, the exudation of pleural wash was evaluated by the measure of the volume collected from the cavity with the help of a graded syringe and the overflow of proteins was evaluated by the quantification of proteins at the supernatant by the method of Lowry (Lowry et al., 1951). […]

In experiment [8] the test system is edema of paw induced by egg albumin in sensitized mice. Briefly: allergic edema of paw induced by egg albumin, oral pre-treatment. The class given is in vivo, Swiss mice. Conditions: promethazine 30 mg/Kg oral, 1 h before, egg albumin 3 μg/paw. As to the method:
This essay was made in animals previously sensitized through an subcutaneous injection (s.c.) in the dorsal region with 200 μL of a suspension containing 50 μg of egg albumin+5 mg (Al(OH)3) diluted in sterile saline free or pyrogens (200 μL/animal). The edema of paw was induced by an intraplant paw injection of egg albumin (3 μg/paw, no final volume of 50 μL) in one of the back paws, fourteen days after sensitization. The counter-lateral paw received an injection with the same volume of the vehicle (solution saline). The edema was analyzes in a digital plethysmograph, through the displacement of fluid (0.5 g NaCl; 3 mL Extran 100%/1 L) produced by the insertion of the paw in test in the measurement tray. Each analysis was performed 3 times. […]
For evaluation of the anti-allergenic activity of the oil of Carapa guianensis, the dosages of 200 and 400 mg/Kg were tested for mice and 150 and 300 mg/Kg for rats, depending on the model tested. […] The results were expressed as mean and pattern error of the mean and (AND.P.M.), and statistically analyzed through the analysis of the variance (ANOVA), followed by test of multiple comparisons of Newman-Kewls, or T of Student test with a level of significance minor or equal to 0.05 (p≦0.05).

Experiment [9] relates to ear edema induced by histamine. The experiment can be described thus: edema of ear induced by histamine (Evans blue). The class given is in vivo, mice. Conditions: promethazine 10 mg/Kg p.o.; 30 minutes. How it is done: The ear edema was induced in anesthetized mice (pentobarbital 40 mg/kg, via intravenous, i.v.) with an intravenous injection (i.v.) in the orbital plexus of Evans blue 1% (25 mg/Kg), 24 hours before the stimulus. […] Thirty minutes after the stimulus, the animals were sacrificed in the chamber of CO2, and their ears were removed and placed in formamide (500 μL/ear) for 24 hours for the extraction of Evans blue. The concentration of Evans blue in the supernatant was analyzed through spectrophotometer (SpectraMax®) at λ 600 nm. The concentration of Evans blue is determined comparing the optical density é (D.O.) of a pattern curve (from 25.6 to 0.2 μg/mL).
as §3

Experiment [10] deals with hyperalgesia induced by histamine. The experiment can be described thus: hyperalgesia induced by histamine (hot plate). The format is in vivo, Wistar rats. Conditions: promethazine 30 mg/Kg p.o. As to the method:
as §2
The induction of a hyperalgesic state was performed through intraplant injection of 100 μg/paw of histamine in Wistar rats in one of the rear paws, at the final volume of 100 μL/paw. In the counter-lateral paw the same volume of vehicle (sterile saline free of pyrogens) was injected. The stimulus was performed in animals non-treated and in animals pre-treated with promethazine (30 mg/Kg, p.o.). Thirty minutes after the stimulus, the animals were placed in a hot plate at 52.5±0.5° C., and two chronometers are set to record the latency of response of withdrawal of each rear paw. Results were expressed in terms of variation of latency of withdrawal of left and right side paws, measured in seconds.
The induction of a hyperalgesic state was performed through intraplant injection of 100 μg/paw of histamine in Wistar rats in one of the rear paws, at a final volume of 100 μL/paw. […] Results were expressed in terms of variation of latency of withdrawal of left and right side paws, measured in seconds.

Experiment [11] relates to edema of paw induced by bradykinin. The experiment can be described thus: edema of paw induced by bradykinin. The class given is in vivo, Wistar rats. The settings on record: HOE 140 10 nmol/paw intraplant. How it is done: Wistar rats were stimulated through intraplant injection of 10 nmol/paw of bradykinin (BK) in one of the rear paws at the volume of 50 μL/paw (Henriques, 1991). In the counter-lateral paw was injected the same volume of vehicle (sterile saline free of pyrogens). The stimulus was performed in non-treated animals and in animals pre-treated through of an intraplant injection of 10 nmol/paw of antagonist to bradykinin HOE 140 at the volume of 50 μL. Thirty minutes after the stimulus, the edema was analyzed on the digital plethysmograph, through the displacement of fluid (0.5 g NaCl; 3 mL Extran 100%/1 L) produced by insertion of each paw in the measurement tray. Each analysis was performed 3 times.

“Also recorded” adds a separate entry of the source.

For the molecule `Cc1nnc2n1-c1sc3c(c1C(c1ccccc1Cl)=NC2)CC(C(=O)N1CCOCC1)C3` (centres unmarked) [WEB 2170], the “edema of paw induced by PAF” value in experiment [1] is “inhibition of edema”.
Consider `O=C([O-])Cc1ccccc1Nc1c(Cl)cccc1Cl.[K+]` [diclophenac, diclophenac of potassium], for which the “edema of paw induced by carrageenin” value in experiment [2] is reported as “inhibition”. Besides, the “edema of paw induced by zimosan” value in experiment [3] is given as “inhibition”. The “proteic overflow induced by carrageenin in pleural cavity” value in [4] is given as “able to significantly inhibit the proteic overflow induced by carrageenin”.
As to `Cc1c(N(C)CS(=O)(=O)[O-])c(=O)n(-c2ccccc2)n1C.[Na+]` [dipyrone], in experiment [5], the “hyperalgesia induced by carrageenin” value is given as “inhibition of hyperalgesia”.
For the molecule `CC(CN1c2ccccc2Sc2ccccc21)N(C)C` (centres unmarked) [promethazine], the “edema of paw induced by histamine” value in [6] is “inhibited”. The “proteic overflow in pleurisis induced by histamine” value in experiment [7] is “able to significantly inhibit the proteic overflow induced by histamine”. The “allergic edema of paw induced by egg albumin” value in experiment [8] was “significantly inhibited; also recorded: inhibition of edema”. In addition, the “ear edema induced by histamine” value in [9] was “able to significantly inhibit the edema induced by histamine”. Also, the “hyperalgesia induced by histamine” value in experiment [10] was “inhibition of hyperalgesia”.
HOE 140: the “edema of paw induced by bradykinin” value in experiment [11] is reported as “inhibition of edema”.
